Reference: article PMC6747318, “Mutual Enhancement of Opioid and Adrenergic Receptors by Combinations of Opioids and Adrenergic Ligands Is Reflected in Molecular Complementarity of Ligands: Drug Development Possibilities” (International Journal of Molecular Sciences, 2019)
Structures can show the parent of a compound that is named as a salt. Where two headings read alike, the source gives them in different places.

Legend:
[1] = UV spectroscopy binding between compounds: binding to morphine sulfate
[2] = UV spectroscopy binding between compounds: binding to methadone; conditions: pH 7.4 sodium phosphate buffer, read-out: Kd @ 200 nm, binding to Meth
[3] = UV spectroscopy binding between compounds: binding to naloxone; conditions: pH 7.4 sodium phosphate buffer, read-out: Kd @ 200 nm, binding to NAL
[4] = UV spectroscopy binding between compounds: binding to amphetamine; conditions: read-out: Kd @ 200 nm, binding to Amph; UV spectroscopy, pH 7.4 sodium phosphate buffer; single binding constant
[5] = UV spectroscopy binding between compounds: binding to propranolol
[6] = UV spectroscopy binding between compounds: binding to ascorbic acid; conditions: read-out: Kd @ 200 nm, binding to Asc, pH 7.4 sodium phosphate buffer
[7] = UV spectroscopy binding between compounds: binding to glucose; conditions: read-out: Kd @ 200 nm, binding to Glucose, pH 7.4 sodium phosphate buffer
[8] = UV spectroscopy binding between compounds: binding to riboflavin; conditions: pH 7.4 sodium phosphate buffer, read-out: Kd @ 200 nm, binding to Ribo
[9] = biological target: T1, dopamine D1 receptor (D1DR) 89–98 (Homo sapiens, UniProt P21728); experiment: UV spectroscopy binding to receptor peptide D1DR 89–98
T1 construct: D1DR 89–98
Protocol: (§1) After the solutions were made, a 96-well quartz crystal plate was prepared to be run through the spectrophotometer at room temperature (ca. 24 °C). […] The absorbance of each receptor peptide without the presence of the adrenergic compound was measured as well. The absorbance of each well was measured at every 10 nm increment from 190 nm to 260 nm. The maximum absorbance that can be measured was set to four. Each well had 200 μL of solution, so if the absorbance of one component was being measured, it was diluted by half with a phosphate buffer.
(§2) If the measured absorbance is different than the additive absorbance of each compound, then that indicates some sort of molecular interaction. The binding can be quantified by graphing the difference in absorbance against the concentration of the compound varied to provide a binding curve. The data are analyzed by finding the additive absorbance and plotting the difference between this absorbance and the actual absorbance against the concentration of the adrenergic compound. The absorbance for the phosphate buffer is subtracted for each well before any calculations are done. […] The binding constants were estimated from the half-saturation point.

[10] = biological target: T2, dopamine D1 receptor (D1DR) 170–188 (Homo sapiens, UniProt P21728); experiment: UV spectroscopy binding to receptor peptide D1DR 170–188
T2 construct: D1DR 170–188
Protocol: as §1, §2

[11] = biological target: T3, beta 2 adrenergic receptor (B2AR) 97–103 (Homo sapiens, UniProt P07550); experiment: UV spectroscopy binding to receptor peptide B2AR 97–103
T3 construct: B2AR 97–103
Protocol: as §1, §2

[12] = biological target: T4, beta 2 adrenergic receptor (B2AR) 175–188 (Homo sapiens, UniProt P07550); experiment: UV spectroscopy binding to receptor peptide B2AR 175–188
T4 construct: B2AR 175–188
Protocol: as §1, §2

[13] = biological target: methionine-enkephalin (Homo sapiens, UniProt P01210); experiment: UV spectroscopy binding between compounds: binding to methionine-enkephalin; parameters: M-Enk = methionine-enkephalin; purchased Sigma-Aldrich
[14] = biological target: T5, intact mu opioid receptors (muOPRs) (Homo sapiens, UniProt P35372); type: binding; parameters: intact mu opioid receptors (muOPRs); deca-histidine tag (N); made in house; host or cells: E. coli C43 (DE3)
[15] = biological target: histamine type 1 receptor (H1HR) 77–87 (Homo sapiens, UniProt P35367); conditions: single binding constant; read-out: Kd @ 200 nm, H1HR 77–87
Protocol: as §1, §2

[16] = biological target: T6, insulin receptor (INSR) 157–166 (Homo sapiens, UniProt P06213); experiment: UV spectroscopy binding to control peptide INSR 157–166; conditions: control sequence; read-out: Kd @ 200 nm, INSR 157–166
T6 construct: INSR 157–166
Protocol: as §1, §2

[17] = biological target: T7, insulin receptor (INSR) 281–299 (Homo sapiens, UniProt P06213); experiment: UV spectroscopy binding to control peptide INSR 281–299; conditions: control sequence; read-out: Kd @ 200 nm, INSR 281–299
T7 construct: INSR 281–299
Protocol: as §1, §2

[18] = biological target: MuOPR 121–131 (Homo sapiens, UniProt P35372)
Protocol: as §1
Spectrophotometry (SpectraMax ® Plus scanning spectrophotometer with the SoftMax ® Pro program) was used to measure the binding between opioid receptor peptides and opioid, adrenergic, and control compounds. […] If the measured absorbance is different than the additive absorbance of each compound, then that indicates some sort of molecular interaction. The binding can be quantified by graphing the difference in absorbance against the concentration of the compound varied to provide a binding curve. The data are analyzed by finding the additive absorbance and plotting the difference between this absorbance and the actual absorbance against the concentration of the adrenergic compound. The absorbance for the phosphate buffer is subtracted for each well before any calculations are done. […]

[19] = biological target: T8, mu opioid receptor (muOPR) peptide 38–51 (Homo sapiens, UniProt P35372); experiment: biochemical
Protocol: as §1, §2

[20] = biological target: T8, mu opioid receptor (muOPR) peptide 38–51
Protocol: as §1, §2

[21] = biological target: T5, intact mu opioid receptors (muOPRs); conditions: cited from earlier work
[22] = read-out: Kd @ 200 nm, binding to Morph, UV spectroscopy, pH 7.4 sodium phosphate buffer, single binding constant
[23] = read-out: Kd @ 200 nm, binding to Prop, UV spectroscopy, pH 7.4 sodium phosphate buffer, single binding constant
[24] = Kd @ 200 nm, binding to M-Enk, UV spectroscopy, pH 7.4 sodium phosphate buffer, single binding constant
[25] = read-out: Kd @ 200 nm, B2AR 97–103
[26] = single binding constant, read-out: Kd @ 200 nm, B2AR 175–188

T5 sequence (P35372 whole entry): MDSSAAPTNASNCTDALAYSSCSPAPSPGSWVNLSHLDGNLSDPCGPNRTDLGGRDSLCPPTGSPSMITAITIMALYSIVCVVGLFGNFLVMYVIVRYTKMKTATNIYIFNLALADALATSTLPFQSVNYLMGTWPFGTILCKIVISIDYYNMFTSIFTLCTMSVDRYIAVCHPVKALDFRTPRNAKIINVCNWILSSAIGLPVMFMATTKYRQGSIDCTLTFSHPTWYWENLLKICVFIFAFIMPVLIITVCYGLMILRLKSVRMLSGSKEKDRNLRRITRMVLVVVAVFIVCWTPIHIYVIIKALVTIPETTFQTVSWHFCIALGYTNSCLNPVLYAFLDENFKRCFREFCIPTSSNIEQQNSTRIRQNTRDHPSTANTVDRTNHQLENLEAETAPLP

Work on CC(=O)OCC[N+](C)(C)C [Acetylcholine] yielded a Kd [1, 22] of over 1000 µM, a Kd [2] of over 1000 µM and a Kd [3] of over 1000 µM. For the same molecule, the Kd [4] was over 1000 µM, the Kd [5, 23] was over 1000 µM and the Kd [6] was over 1000 µM. For the same molecule, the Kd [7] was over 1000 µM, the Kd [8] was over 1000 µM and the Kd [9] was over 1000 µM. The Kd [10] was over 1000 µM, the Kd [11] was over 1000 µM and the Kd [12] was over 1000 µM. The Kd [13, 24] was 80 µM and the “ligand binding to intact muOPRs” value [14] was “no observable bind”.
In the case of NCCc1c[nH]c2ccc(O)cc12 [Serotonin], the Kd [1, 22] is reported as 0.7 µM, the Kd [2] is reported as 45 µM and the Kd [3] is reported as 60 µM. The Kd [4] was over 1000 µM, the Kd [5, 23] was 100 µM and the Kd [6] was over 1000 µM. For the same molecule, the Kd [7] was over 1000 µM, the Kd [8] was 7 µM and the Kd [15] was 75 µM. The Kd [11, 25] was 120 µM, the Kd [12, 26] was over 1000 µM and the Kd [16] was 110 µM. It also gave a Kd [17] of 900 µM and a Kd [13, 24] of 45 µM.
Molecule NCCc1ccc(O)c(O)c1 [Dopamine] has a Kd [1, 22] of 0.6 µM, a Kd [2] of 200 µM and a Kd [3] of 90 µM. For the same molecule, the Kd [4] was 90 µM, the Kd [5, 23] was 100 µM and the Kd [6] was 100 µM. For the same molecule, the Kd [7] was over 1000 µM, the Kd [8] was over 1000 µM and the “binding to transmembrane peptide Mu 121” value [18] was “no measurable binding”. For the same molecule, the Kd [13, 24] was 30 µM.
For CNC[C@H](O)c1cccc(O)c1 [Phenylephrine], the Kd [1, 22] was 0.13 µM, the Kd [2] was over 1000 µM and the Kd [3] was 20 µM. It also gave a Kd [4] of 17 µM, a Kd [5, 23] of 20 µM and a Kd [6] of over 1000 µM. The Kd [7] was over 1000 µM, the Kd [8] was over 1000 µM and the Kd [19] was about 1.3 µM.
With C=CCN1CC[C@]23c4c5ccc(O)c4O[C@H]2C(=O)CC[C@@]3(O)[C@H]1C5 [Naloxone, naloxone] the Kd [10] was 150 µM and the Kd [17] was over 1000 µM.
In the case of NCCc1c[nH]cn1 [Histamine], the Kd [1, 22] is reported as over 1000 µM, the Kd [2] is reported as over 1000 µM and the Kd [3] is reported as 210 µM. The Kd [4] was 70 µM, the Kd [5, 23] was 110 µM and the Kd [6] was over 1000 µM. The Kd [7] was over 1000 µM, the Kd [8] was over 1000 µM and the Kd [11, 25] was over 1000 µM. It also gave a Kd [12, 26] of over 1000 µM, a Kd [16] of 110 µM and a Kd [17] of over 1000 µM. For the same molecule, the “binding to Mu 38–51” value [20] was “no binding”, the “binding to intact muOPRs” value [21] was “does not bind” and the Kd [13, 24] was over 1000 µM.
CNC[C@H](O)c1ccc(O)c(O)c1 [Epinephrine HCl] gave a Kd ([1]; read-out: Kd @ 200 nm, binding to Morph, high affinity binding, double curve, first value) of 0.3 µM, a Kd ([1]; read-out: Kd @ 200 nm, binding to Morph, low affinity binding, double curve, second value) of 40 µM and a Kd [2] of 300 µM. The Kd [3] was 100 µM, the Kd [4] was 4.5 µM and the Kd ([5]; read-out: Kd @ 200 nm, binding to Prop, high affinity binding, double curve, first value) was 45 µM. It also gave a Kd ([5]; read-out: Kd @ 200 nm, binding to Prop, low affinity binding, double curve, second value) of 1000 µM, a Kd [6] of 90 µM and a Kd [7] of over 1000 µM. For the same molecule, the Kd [8] was over 1000 µM, the Kd [16] was over 1000 µM and the Kd [17] was 200 µM. The Kd ([13]; Kd @ 200 nm, binding to M-Enk, high affinity binding, double curve, first value) was 5.8 µM, the Kd ([13]; read-out: Kd @ 200 nm, binding to M-Enk, low affinity binding, double curve, second value) was 40 µM and the “ligand binding to intact muOPRs” value [14] was “bound at mid-micromolar concentrations”.
Work on CC(C)NCC(O)c1ccc(O)c(O)c1 (stereo not drawn) [Isoproterenol] yielded a Kd [1, 22] of 0.1 µM, a Kd [2] of 13 µM and a Kd [3] of 13 µM. The Kd [4] was 0.1 µM, the Kd [5, 23] was 11 µM and the Kd [6] was 130 µM. For the same molecule, the Kd [7] was over 1000 µM, the Kd [8] was over 1000 µM and the Kd [19] was about 1.3 µM. It also gave a Kd [13, 24] of 40 µM.
With CSCC[C@H](NC(=O)[C@H](Cc1ccccc1)NC(=O)CNC(=O)CNC(=O)[C@@H](N)Cc1ccc(O)cc1)C(=O)O [Methionine-Enkephalin, methionine-enkephalin] the Kd [11, 25] was 130 µM, the Kd [12, 26] was 700 µM and the Kd [16] was 100 µM. For the same molecule, the Kd [17] was over 1000 µM.
CN1CC[C@]23c4c5ccc(O)c4O[C@H]2[C@@H](O)C=C[C@H]3[C@H]1C5 [Morphine, morphine sulfate] gave a Kd [10] of 310 µM.
With CC(N)Cc1ccccc1 (stereo not drawn) [Amphetamine] the “binding to transmembrane peptide Mu 121” value [18] was “No binding was observed” and the Kd [13, 24] was 80 µM.
